Test results as given in patent publication US5196292A, “Nucleated high contrast photographic elements containing ballasted thioether isothioureas to inhibit pepper fog and restrain image spread” (priority 1991, dated 1993).

Legend:
[1] = sensitometry: change in speed and practical density point versus control; conditions: Table I; for Delta Log Speed: 0.5 mmol/Ag mol isothiourea, change versus control without isothiourea; for Delta PDP (practical density point): 0.5 mmol/Ag mol, density at 0.4 log E past speed point, Test PDP - Control PDP
Description: (§1) Each coating used in obtaining the data provided in these examples was prepared on a polyester support, using a monodispersed 0.23 micrometer cubic, rhodium-doped, sulfur plus gold sensitized AgClBr(70/30) emulsion at 3.24 g/m^2 Ag, 2.35 g gel/m^2 and 1.00 g latex/m^2, where the latex is a copolymer of methyl acrylate, 2-acrylamido-2-methylpropane sulfonic acid and 2-acetoacetoxyethylmethacrylate. Sulfur and gold sensitization was provided by addition of 1.5 mg/Ag mole of 1,3-dicarboxymethyl-1,3-dimethyl-2-thiourea and 1.1 mg/Ag mole of potassium tetrachloroaurate. The silver halide emulsion also contained, in amounts of 50, 400, and 200 mg/Ag mole, respectively, the antifoggants 1-(3-acetamidophenyl)-5-mercaptotetrazole, 5-carboxy-4-hydroxy-6-methyl-2-methyl-mercapto1,3,3a,7-tetra-azaindene and 5-bromo-4-hydroxy-6-methyl-1,3,3a,7-tetraazaindene. The emulsion was spectr sensitized at 208 mg/Ag mol with a sensitizing dye of the formula: [drawing 17] and the emulsion layer was overcoated with gelatin containing polymethylmethacrylate beads. The nucleating agent was added as a methanol solution to the emulsion melts at a level of 0.2 millimoles (mM) per mole of silver. The compound employed as the nucleating agent is represented by the formula: [drawing 18]
(§2) An "incorporated booster" was added as a methanol solution in an amount of 2 g/Ag mol. The compound employed as the "incorporated booster" is represented by the formula: [drawing 19] where Pr represents n-propyl
(§3) Ballasted thioether isothioureas I to VII were incorporated n the emulsion at 0.5 mmol/Ag mol as methanol solutions. Coatings were exposed through a 0.1 Log E step tablet for five seconds to a 3000° K. tungsten light source and processed for 30 seconds at 30° C. in the developer solution. Processing was carried out in a KODAK KODAMATIC Model 42S processor.
(§4) The concentrate was diluted at a ratio of one part of concentrate to three parts of water to produce a working strength developing solution with a pH of 10.5.
(§5) An electronic image analyzer was used to scan processed unexposed samples and count the number of pepper fog spots (>10 micrometer diameter) contained in an area of 600 square millimeters. Standard sensitometry exposures were processed and analyzed to monitor speed and shoulder density effects.
(§6) Sensitometry parameters are expressed in Table I in terms of the change produced by incorporation of the ballasted thioether isothiourea versus the control which contained no isothiourea compound and was processed under identical conditions. Values are reported for speed, practical density point (PDP, a measure of shoulder development) and pepper fog (PF). Therefore, the changes in speed, practical density point and pepper fog produced by the ballasted thioether isothiourea are directly recorded in the table. By definition, the delta log speed, delta PDP and delta log PF for the control are zero.
(§7) In each of examples 1 to 7, the ballasted thioether isothiourea was employed in the form of the hydrochloride salt. Comparative test A utilized the hydrobromide salt of isothiourea compound "A" of the formula: [drawing 20] Comparative test B utilized the hydrobromide salt of isothiourea compound "B" of the formula: [drawing 21] Both compounds A and B were utilized at a concentration of 0.5 mmol/Ag mol.

[2] = pepper fog spot count by electronic image analyzer, change versus control; conditions: for Delta Log PF (pepper fog): Table I, 0.5 mmol/Ag mol, spots >10 micrometer diameter in 600 square millimeters, -0.3 = two times reduction; for reduction in pepper fog (in words): from Table I, versus control
Description: as §1, §2, §3, §4, §5, §6, §7

[3] = image spread: halftone dot growth rate during development; conditions: for Dot Growth Rate: Table II, 0.5 mmol/Ag mol, control 0.63 microns/sec; for reduction of dot growth rate (in words): from Table II, versus control, silver chlorobromide emulsion
Description: as §1, §2, §3
Each of the coatings was also analyzed for the effect upon image spread of the incorporation of the isothiourea compound.
Image spread measurements were performed by following the growth in diameter of halftone dots with development time. The films were contact exposed to a 52 line/cm 90% tint to produce a 10% exposed dot pattern. The films were then developed in a device that measures the infrared (IR) density during development. The integrated IR halftone density of the developing tint pattern was converted to the equivalent dot diameter using the relation between integrated density and percent dot area. The resulting plots of increasing dot diameter with development time were linear (constant dot growth rate) during the first 60 to 90 seconds of development.

With `CCCCCCCCCCCCSC(=N)N` [B, reference compound] the “Delta Log Speed” value [1] was -0.02, the “Delta PDP (practical density point)” value [1] was -0.34 and the “Delta Log PF (pepper fog)” value [2] was -0.07. For the same compound, the “reduction in pepper fog (in words)” value [2] was “also reduced pepper fog, but to a much lesser extent”, the “Dot Growth Rate” value [3] was 0.62 microns/sec and the “reduction of dot growth rate (in words)” value [3] was “ineffective in reducing dot growth rate”.
With `CCCCCCCCSC(=N)N` [Compound A, reference compound] the “Delta Log Speed” value [1] was -0.02, the “Delta PDP (practical density point)” value [1] was -0.22 and the “Delta Log PF (pepper fog)” value [2] was -0.12. For the same compound, the “reduction in pepper fog (in words)” value [2] was “also reduced pepper fog, but to a much lesser extent”, the “Dot Growth Rate” value [3] was 0.62 microns/sec and the “reduction of dot growth rate (in words)” value [3] was “ineffective in reducing dot growth rate”.
With `CCCCCCSCCCSC(=N)N` [III] the “Delta Log Speed” value [1] was -0.02, the “Delta PDP (practical density point)” value [1] was -0.36 and the “Delta Log PF (pepper fog)” value [2] was -0.58. The “Dot Growth Rate” value [3] was 0.54 microns/sec.
With `CCCCCCCCCCSCCSC(=N)N` [II] the “Delta Log Speed” value [1] was -0.03, the “Delta PDP (practical density point)” value [1] was -0.14 and the “Delta Log PF (pepper fog)” value [2] was -0.46. The “Dot Growth Rate” value [3] was 0.58 microns/sec.
For `CCCCCCCCCCSCCCSC(=N)N` [IV], the “Delta Log Speed” value [1] was -0.01, the “Delta PDP (practical density point)” value [1] was -0.39 and the “Delta Log PF (pepper fog)” value [2] was -0.43. For the same compound, the “Dot Growth Rate” value [3] was 0.58 microns/sec.
With `CCCCCCSCCSC(=N)N` [I] the “Delta Log Speed” value [1] was -0.01, the “Delta PDP (practical density point)” value [1] was -0.06 and the “Delta Log PF (pepper fog)” value [2] was -0.14. For the same compound, the “Dot Growth Rate” value [3] was 0.55 microns/sec.
With `N=C(N)SCCSCc1ccccc1` [VII] the “Delta Log Speed” value [1] was -0.03, the “Delta PDP (practical density point)” value [1] was -0.42 and the “Delta Log PF (pepper fog)” value [2] was -0.86. For the same compound, the “reduction in pepper fog (in words)” value [2] was “reducing pepper fog by a factor of almost ten times” and the “Dot Growth Rate” value [3] was 0.54 microns/sec.
With `N=C(N)SCCSc1ccccc1` [VI] the “Delta Log Speed” value [1] was -0.01, the “Delta PDP (practical density point)” value [1] was -0.19 and the “Delta Log PF (pepper fog)” value [2] was -0.48. The “Dot Growth Rate” value [3] was 0.60 microns/sec.
In the case of `CCCCSCCSC(=N)N` [V], the “Delta Log Speed” value [1] is reported as -0.01, the “Delta PDP (practical density point)” value [1] is reported as -0.38 and the “Delta Log PF (pepper fog)” value [2] is reported as -0.33. The “Dot Growth Rate” value [3] was 0.57 microns/sec.
